Molecular target: T1, RIPK2 enzyme (Homo sapiens, UniProt O43353)
T1 construct: purchased Carna 09-128
Assay: RIPK2 inhibition (ADP-Glo Kinase Assay)
Format: biochemical
Details: RIPK2 5 nM, ATP 150 μM, MBP substrate, read-out: RIPK2 IC50
Method in brief: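 Swine MBP substrate; compound and 5 nM RIPK2 first mixed for 30 min at room temperature; buffer pH 7.5 HEPES 50 mM with 10 mM MgCl2, 2 mM DTT, 1 mM EGTA, Brij-35, BSA.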

T1 sequence (O43353 1-299 limits assumed): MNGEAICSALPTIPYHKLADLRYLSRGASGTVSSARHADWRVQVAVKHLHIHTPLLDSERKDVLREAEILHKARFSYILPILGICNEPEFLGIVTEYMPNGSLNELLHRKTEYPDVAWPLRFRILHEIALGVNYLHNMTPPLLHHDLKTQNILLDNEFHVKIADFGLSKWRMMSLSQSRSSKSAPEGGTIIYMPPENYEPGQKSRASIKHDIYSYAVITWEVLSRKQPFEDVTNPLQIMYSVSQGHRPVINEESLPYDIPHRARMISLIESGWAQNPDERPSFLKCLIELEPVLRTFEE

Row | Compound | IC50
1 | C[S+]([O-])c1ccc2ncnc(Oc3ccc(CC(=O)Nc4cnn(C(C)(C)C)c4)c(F)c3)c2c1 (stereo not drawn) [Compound 44, N-(1-(tert-butyl)-1H-pyrazol-4-yl)-2-(2-fluoro-4-((6-(methylsulfinyl)quinazolin-4-yl)oxy)phenyl)acetamide] | 26.2 nM
2 | Cc1cc(CC(=O)Nc2cnn(C(C)(C)C)c2)ccc1Oc1ccnc2ccc(OC3CCNCC3F)cc12 (racemic) [Compound 238, N-(1-(tert-butyl)-1H-pyrazol-4-yl)-2-(4-((6-((-3-fluoro-piperidin-4-yl)oxy)quinolin-4-yl)oxy)-3-methylphenyl) acetamide] | < 2.5 nM
3 | CC(C)c1cc(NC(=O)Cc2ccc(Oc3ccnc4ccc(S(C)(=O)=O)cc34)cc2F)n[nH]1 [Compound 143, 2-(2-fluoro-4-((6-(methylsulfonyl)quinolin-4-yl)oxy)phenyl)-N-(5-isopropyl-1H-pyrazol-3-yl)acetamide] | < 2.5 nM
4 | Cc1cc(CC(=O)Nc2cc(C(C)(C)C)n[nH]2)ccc1Oc1ccnc2ccc(S(C)(=N)=O)cc12 (stereo not drawn) [Compound 88, N-(5-(tert-butyl)-1H-pyrazol-3-yl)-2-(3-methyl-4-((6-(S-methylsulfonimidoyl)quinolin-4-yl)oxy)phenyl)acetamide] | < 2.5 nM
5 | CC(C)(C)n1cc(NC(=O)Cc2ncc(Oc3ccnc4ccc(OC5CCNCC5)cc34)cc2F)cn1 [Compound 80, N-(1-(tert-butyl)-1H-pyrazol-4-yl)-2-(3-fluoro-5-((6-(piperidin-4-yloxy)quinolin-4-yl)oxy)pyridin-2-yl)acetamide] | 3.5 nM
6 | C[S+]([O-])c1ccc2nccc(Oc3ccc(CC(=O)Nc4cnn(C(C)(C)C)c4)c(F)c3)c2c1 (stereo not drawn) [Compound 45, N-(1-(tert-butyl)-1H-pyrazol-4-yl)-2-(2-fluoro-4-((6-(methylsulfinyl)quinolin-4-yl)oxy)phenyl)acetamide] | < 2.5 nM
7 | CCS(=O)(=NC)c1ccc2nccc(Oc3ccc(CC(=O)Nc4cnn(C(C)(C)C)c4)c(F)c3)c2c1 (stereo not drawn) [Compound 74, N-(1-(tert-butyl)-1H-pyrazol-4-yl)-2-(2-fluoro-4-((6-(N-methylethylsulfonimidoyl)quinolin-4-yl)oxy)phenyl)acetamide] | 4 nM
8 | CCN1CCC(Oc2ccc3ncnc(Oc4ccc(CC(=O)Nc5cnn(C(C)(C)C)c5)cc4C)c3c2)CC1 [Compound 109, N-(1-(tert-butyl)-1H-pyrazol-4-yl)-2-(4-((6-((1-ethyl-piperidin-4-yl)oxy)quinazolin-4-yl)oxy)-3-methylphenyl) acetamide] | 3.9 nM
9 | CCN1CCC(Oc2ccc3ncnc(Oc4ccc(CC(=O)Nc5cnn(C(C)(C)C)c5)cc4Cl)c3c2)CC1 [Compound 160, N-(1-(tert-butyl)-1H-pyrazol-4-yl)-2-(3-chloro-4-((6-((1-ethyl-piperidin-4-yl)oxy)quinazolin-4-yl)oxy)phenyl) acetamide] | < 2.5 nM
10 | Cc1cc(CC(=O)Nc2cnn(C(C)(C)C)c2)ccc1Oc1ccnc2ccc(S(=O)(=O)CCO)cc12 [Compound 203, N-(1-(tert-butyl)-1H-pyrazol-4-yl)-2-(4-((6-((2-hydroxyethyl)sulfonyl)quinolin-4-yl)oxy)-3-methylphenyl)acetamide] | < 2.5 nM
11 | COCCOc1ccc2ncnc(Oc3ccc(CC(=O)Nc4cnn(C(C)(C)C)c4)c(F)c3)c2c1 [Compound 50, N-(1-(tert-butyl)-1H-pyrazol-4-yl)-2-(2-fluoro-4-((6-(2-methoxy-ethoxy)quinazolin-4-yl)oxy)phenyl) acetamide] | 15.4 nM
12 | CC(=O)N1CCC(Oc2ccc3nccc(Oc4ccc(CC(=O)Nc5cnn(C(C)(C)C)c5)c(F)c4)c3c2)CC1 [Compound 151, 2-(4-((6-((1-acetyl-piperidin-4-yl)oxy)quinolin-4-yl)oxy)-2-fluoro-phenyl)-N-(1-(tert-butyl)-1H-pyrazol-4-yl)acetamide] | < 2.5 nM
13 | COc1ccc2ncnc(Oc3ccc(CC(=O)Nc4cc(C(C)(C)C)n(C)n4)c(F)c3)c2c1 [Compound 37, N-(5-(tert-butyl)-1-methyl-1H-pyrazol-3-yl)-2-(2-fluoro-4-((6-methoxy-quinazolin-4-yl)oxy)phenyl) acetamide] | 7.8 nM
14 | Cc1c(Oc2ccnc3ccc(S(=O)(=O)N4CCC4)cc23)ccc(CC(=O)Nc2cnn(C(C)(C)C)c2)c1F [Compound 271, 2-(4-((6-(azetidin-1-ylsulfonyl)quinolin-4-yl)oxy)-2-fluoro-3-methylphenyl)-N-(1-(tert-butyl)-1H-pyrazol-4-yl)acetamide] | < 2.5 nM
15 | Cc1cc(CC(=O)Nc2cnn(C(C)(C)C)c2)ccc1Oc1ccnc2ccc(O[C@H]3CC[C@@H](N)CC3)cc12 [Compound 121, 2-(4-((6-(((1s,4s)-4-aminocyclo-hexyl)oxy)quinolin-4-yl)oxy)-3-methyl-phenyl)-N-(1-(tert-butyl)-1H-pyrazol-4-yl)acetamide] | < 2.5 nM
16 | Cc1cc(CC(=O)Nc2cnn(C(C)(C)C)c2)ccc1Oc1ccnc2ccc(S(=O)(=O)N3CC(C#N)C3)cc12 [Compound 260, N-(1-(tert-butyl)-1H-pyrazol-4-yl)-2-(4-((6-((3-cyanoazetidin-1-yl)sulfonyl)quinolin-4-yl)oxy)-3-methylphenyl)acetamide] | 2.5 nM
17 | Cc1cc(CC(=O)Nc2cnn(C(C)C)c2)ccc1Oc1ccnc2ccc(S(C)(=O)=O)cc12 [Compound 212, N-(1-isopropyl-1H-pyrazol-4-yl)-2-(3-methyl-4-((6-(methylsulfonyl)quinolin-4-yl)oxy)phenyl)acetamide] | < 2.5 nM
18 | CN1CCC(Oc2ccc3ncnc(Oc4ccc(CC(=O)Nc5cnn(C(C)(C)C)c5)c(F)c4F)c3c2)CC1 [Compound 170, N-(1-(tert-butyl)-1H-pyrazol-4-yl)-2-(2,3-difluoro-4-((6-((1-methyl-piperidin-4-yl)oxy)quinazolin-4-yl)oxy)phenyl) acetamide] | < 2.5 nM
19 | Cc1cc(CC(=O)Nc2cnn(C(C)(C)C)c2)ccc1Oc1ccnc2ccc(O[C@H]3C[C@H](N)C3)cc12 [Compound 124, 2-(4-((6-((1r,3r)-3-aminocyclo-butoxy)quinolin-4-yl)oxy)-3-methyl-phenyl)-N-(1-(tert-butyl)-1H-pyrazol-4-yl)acetamide] | < 2.5 nM
20 | COc1cc2nccc(Oc3ccc(CC(=O)Nc4cnn(C(C)(C)C)c4)c(F)c3)c2cc1S(=O)(=O)C(C)(C)C [Compound 3, N-(1-(tert-butyl)-1H-pyrazol-4-yl)-2-(4-((6-(tert-butylsulfonyl)-7-methoxyquinolin-4-yl)oxy)-2-fluorophenyl)acetamide] | < 2.5 nM

The remaining lines, values ahead:

Row | IC50 | Compound
21 | < 2.5 nM | Cc1cc(CC(=O)Nc2cnn(C(C)(C)C)c2)c(F)cc1Oc1ccnc2ccc(C(=O)NCC(F)(F)F)cc12 [Compound 362, 4-(4-(2-((1-(tert-butyl)-1H-pyrazol-4-yl)amino)-2-oxoethyl)-5-fluoro-2-methyl-phenoxy)-N-(2,2,2-trifluoroethyl) quinoline-6-carboxamide]
22 | < 2.5 nM | Cc1cc(CC(=O)Nc2cnn(C(C)(C)C)c2)c(F)cc1Oc1ccnc2ccc(C(=O)N3C[C@@H](C)N[C@@H](C)C3)cc12 [Compound 388, N-(1-(tert-butyl)-1H-pyrazol-4-yl)-2-(4-((6-((3R,5S)-3,5-dimethyl-piperazine-1-carbonyl)quinolin-4-yl)oxy)-2-fluoro-5-methyl-phenyl) acetamide]
23 | < 2.5 nM | Cc1cc(CC(=O)Nc2cnn(C(C)(C)C)c2)c(F)cc1Oc1ccnc2ccc(C(=O)NC(C)C)cc12 [Compound 455, 4-(4-(2-((1-(tert-butyl)-1H-pyrazol-4-yl)amino)-2-oxoethyl)-5-fluoro-2-methylphenoxy)-N-isopropylquinoline-6-carboxamide]
24 | < 2.5 nM | Cc1c(Oc2ccnc3ccc(NS(C)(=O)=O)cc23)ccc(CC(=O)Nc2cnn(C(C)(C)C)c2)c1F [Compound 277, N-(1-(tert-butyl)-1H-pyrazol-4-yl)-2-(2-fluoro-3-methyl-4-((6-(methylsulfonamido)quinolin-4-yl)oxy)phenyl) acetamide]
25 | < 2.5 nM | Cc1cc(CC(=O)Nc2cnn(C(C)(C)C)c2)c(F)cc1Oc1ccnc2ccc(S(=O)(=O)C3CCNCC3)cc12 [Compound 313, N-(1-(tert-butyl)-1H-pyrazol-4-yl)-2-(2-fluoro-5-methyl-4-((6-(piperidin-4-ylsulfonyl)quinolin-4-yl)oxy)phenyl)acetamide]
26 | < 2.5 nM | Cc1cc(CC(=O)Nc2cnn(C(C)(C)C)c2)c(F)cc1Oc1ccnc2ccc(C(=O)N3CC(O)C3)cc12 [Compound 373, N-(1-(tert-butyl)-1H-pyrazol-4-yl)-2-(2-fluoro-4-((6-(3-hydroxy-azetidine-1-carbonyl)quinolin-4-yl)oxy)-5-methylphenyl) acetamide]
27 | < 2.5 nM | Cc1c(Oc2ccnc3ccc(CC4CCNCC4)cc23)ccc(CC(=O)Nc2cnn(C(C)(C)C)c2)c1F [Compound 407, N-(1-(tert-butyl)-1H-pyrazol-4-yl)-2-(2-fluoro-3-methyl-4-((6-(piperidin-4-ylmethyl)quinolin-4-yl)oxy)phenyl)acetamide]
28 | < 2.5 nM | Cc1cc(CC(=O)Nc2cnn(C(C)(C)C)c2)c(F)cc1Oc1ccnc2ccc(C(=O)N3C[C@H]4C[C@@H]3CN4)cc12 [Compound 453, 2-(4-((6-((1R,4R)-2,5-diazabicyclo[2.2.1]heptane-2-carbonyl)quinolin-4-yl)oxy)-2-fluoro-5-methylphenyl)-N-(1-(tert-butyl)-1H-pyrazol-4-yl)acetamide]
29 | < 2.5 nM | Cc1cc(CC(=O)Nc2cnn(C(C)(C)C)c2)c(F)cc1Oc1ccnc2ccc(-c3cccnn3)cc12 [Compound 426, N-(1-(tert-butyl)-1H-pyrazol-4-yl)-2-(2-fluoro-5-methyl-4-((6-(pyridazin-3-yl)quinolin-4-yl)oxy)phenyl)acetamide]
30 | < 2.5 nM | Cc1cc(CC(=O)Nc2cnn(C(C)(C)C)c2)ccc1Oc1ccnc2ccc(OC3CCC(=O)NC3)cc12 (stereo not drawn) [Compound 307, N-(1-(tert-butyl)-1H-pyrazol-4-yl)-2-(3-methyl-4-((6-((6-oxopiperidin-3-yl)oxy)quinolin-4-yl)oxy)phenyl) acetamide]

From US12624018B1, “Inhibitors of RIPK2 and medical uses thereof” (Odyssey Therapeutics, Inc., priority 2022, dated 2026)
